Test results from US20250382298A1, “NITROGEN-CONTAINING COMPOUND AND USE THEREOF” (SUZHOU GENHOUSE BIO CO., LTD., priority 2022, published 2025).

Experiments:
HT-29 cells [1] = test: Detection of cell proliferation activity by CCK8 method (HT-29); type: cell-based, human; settings: Homo sapiens, CCK8, 96 h
From the text: (§1) This assay can be used to examine the potency of compounds in inhibiting the proliferation of tumor cells (OVCAR3, HT-29, BT-549, HCT-116). A lower IC50 value indicates high potency of the compound as a KIF18A inhibitor in the following assay setup,
(§2) McCoy's 5A medium purchased from Sangon Biotech; CCK8 kit purchased from Beyotime; OVCAR3, HT-29, HCT-116, and BT-549 cells purchased from Shanghai Fuheng Biotechnology Co., Ltd.; multimode microplate reader (Thermo).
(§3) Cells at the logarithmic growth phase were taken, digested with a cell lysis buffer (trypsin), centrifuged, counted, and seeded into a 96-well plate at an appropriate cell density (BT549: 1500 cells/well in 1640 medium. HT-29 and HCT-116: 2000 cells/well in McCoy's 5A medium), with 180 μL per well, for a total of 60 wells. The surrounding wells were filled with an equal amount of PBS to prevent water evaporation from the edge wells. The next day after cell plating, the test compounds at different concentration gradients (with an initial final concentration of 10 μM, diluted in a 1:5 gradient to obtain 9 concentration gradients) were added to the wells. Three replicate wells were set up for each concentration point, and a corresponding DMSO negative control group was also set up. Detection: After 96 h of drug treatment, the test cell culture plate was removed from the incubator. All the liquid in the 96-well plate was aspirated, and 100 μL of medium containing 10% CCK8 solution was added to each well. The plate was then incubated at 37° C. for 2 h (the OD450 of the DMSO group reached 1.5 or more), and the absorbance at 450 nm was measured using a microplate reader
(§4) After the background value was subtracted from the measurement for each well, the inhibition rate was calculated. Inhibition Rate (%)=(1−Sample/Vehicle)×100. Sample is the luminescence value of the drug treatment group, and Vehicle is the luminescence value of the DMSO control group. A sigmoidal dose-survival rate curve was plotted using a non-linear regression model in the GraphPad Prism 7.0 software, and the IC50 values were calculated.

BT-549 cells = test: Detection of cell proliferation activity by CCK8 method (BT-549); type: cell-based; settings: Homo sapiens, CCK8, 96 h
From the text: as §1, §2, §3, §4

HCT-116 cells [2] = test: Detection of cell proliferation activity by CCK8 method (HCT-116); type: cell-based; settings: Homo sapiens, CCK8, 96 h
From the text: as §1, §2, §3, §4

HT-29 cells [3] = test: Mitotic index analysis, pH3 expression in HT-29 cells; type: cell-based, human; settings: Homo sapiens, 24 h treatment
Description: (§5) HCT-116 and HT-29 cells at the logarithmic growth phase were taken, digested with a cell lysis buffer (trypsin), centrifuged, counted, and seeded into a 96-well plate at an appropriate cell density (20000 cells/well), with 100 μL per well. The surrounding wells were filled with an appropriate amount of PBS to prevent water evaporation. The next day, the cells were treated with the compounds at different concentrations (with a starting concentration of 10 μM, 3-fold diluted to obtain 9 concentration gradients). After 24 h, the medium was aspirated, and the cells were washed twice with 100 μL of PBS. The cells were then fixed with 4% paraformaldehyde and incubated at room temperature for 15 min. The fixative solution was discarded, and the cells were washed with PBS. Then, 150 μL of specialized blocking solution (containing 1% Triton-100) was added to each well for blocking at room temperature for 2 h, and the plate was washed with PBS to remove excess blocking solution. Anti-phistone H3 (pH3) was diluted at a ratio of 1:1000 with a blocking solution containing 0.033% Triton-100, and a blank control group was set up. Then, incubation was performed at 4° C. overnight. The next day, the plate was washed twice with 1×PBST. Anti-rabbit-IgG (H+L) (CST) and DRAQ5 (Thermofisher) were each diluted at an appropriate ratio with a blocking solution containing 0.033% Triton-100 (secondary antibody: 1:2000; DRAQ5: 1:10000). Then, incubation was performed at room temperature for 2 h. The plate was washed twice with 1×PBST and once with PBS. Fluorescence signals at 700 nm and 800 nm were detected using a Li—COR Odyssey two-color near-infrared laser imager. Calculation was performed as follows: pH3 expression (%)=(Cmpd dose/DMSO control)×100. Cmpd dose is the value of the drug treatment group, and DMSO control is the value of the DMSO control group. The EC50 values were determined by fitting using the GraphPad Prism 7.0 software.

HCT-116 cells [4] = test: Mitotic index analysis, pH3 expression in HCT-116 cells; type: cell-based; settings: Homo sapiens, 24 h treatment
Description: as §5

OVCAR3 cells = test: Detection of cell proliferation activity by CCK8 method (OVCAR3); type: cell-based; settings: Homo sapiens, OVCAR-3, CCK8, 96 h
From the text: as §1, §2, §3, §4

Structure (SMILES)	IC50 (HT-29 cells [1]) [µM]	IC50 (BT-549 cells) [µM]	IC50 (HCT-116 cells [2]) [µM]	EC50 (HT-29 cells [3]) [µM]	EC50 (HCT-116 cells [4]) [µM]	IC50 (OVCAR3 cells) [µM]
CC1(C)C2CN(c3cc(NS(=O)(=O)CCO)ccc3C(=O)Nc3cn4ccnc4c(N4CCC(F)(F)CC4)n3)CC21 (stereo not drawn) [Compound 20]	0.518	0.736	> 10	0.434	> 10	0.117
O=C(Nc1cn2c(C(F)(F)F)cnc2c(N2CCC(F)(F)CC2)n1)c1ccc(NS(=O)(=O)CCO)cc1N1CCC2(CC1)CC2 [Compound 35]	–	–	> 10	–	> 10	1.85
O=C(Nc1cn2cc(C(F)(F)F)nc2c(N2CCC(F)(F)CC2)n1)c1ccc(NS(=O)(=O)CCO)cc1N1CCC2(CC1)CC2 [Compound 36]	0.52	1.6	> 10	–	> 10	0.283
O=C(Nc1cc2nccnc2c(N2CCC(F)(F)CC2)n1)c1ccc(NS(=O)(=O)CCO)cc1N1CCC2(CC1)CC2 [Compound 39]	0.0281	0.0266	> 10	–	> 10	0.0101
Cc1cnc2c(N3CCC(F)(F)CC3)nc(NC(=O)c3ccc(NS(=O)(=O)CCO)cc3N3CCC4(CC3)CC4)cn12 [Compound 42]	0.229	0.304	> 10	0.255	> 10	0.0832
O=S(=O)(CCO)Nc1cc(N2CCC3(CC2)CC3)c2c(Nc3cn4ccnc4c(N4CCC(F)(F)CC4)n3)ncnc2c1 [Compound 43]	0.0946	0.0652	> 10	0.03	> 10	0.0234
Cc1cc(NC(=O)c2ccc(NS(=O)(=O)CCO)cc2N2Cc3ccccc3C2)nc(N2CCC(F)(F)CC2)n1 [Compound 44]	1.64	1.9	> 10	–	> 10	0.733
CS(=O)(=O)Nc1ccc(C(=O)Nc2cc3ccsc3c(N3CCC(F)(F)CC3)n2)c(N2CCC3(CC2)CC3)c1 [Compound 45]	0.094	0.17	> 10	0.0808	> 10	0.0543
CS(=O)(=O)Nc1ccc(C(=O)Nc2cn3c(F)cnc3c(N3CCC(F)(F)CC3)n2)c(N2CCC3(CC2)CC3)c1 [Compound 46]	0.0556	0.0758	> 10	0.053	> 10	0.0348
Cn1ncc2cc(NC(=O)c3ccc(NS(C)(=O)=O)cc3N3CCC4(CC3)CC4)nc(N3CCC(F)(F)CC3)c21 [Compound 48]	0.0171	0.0263	> 10	0.0122	> 10	0.0122
O=C(Nc1cc2ccsc2c(N2CCC(F)(F)CC2)n1)c1ccc(NS(=O)(=O)CCO)cc1N1CC2CCC(C2)C1 [Compound 50]	0.0555	0.175	> 10	0.0315	> 10	0.0519
O=C(Nc1cn2ncnc2c(N2CCC(F)(F)CC2)n1)c1ccc(NS(=O)(=O)CCO)cc1N1CC2CCC(C2)C1 [Compound 54]	0.0267	0.0547	> 10	0.0108	> 10	0.0117
CS(=O)(=O)Nc1ccc(C(=O)Nc2cn3cncc3c(N3CCC(F)(F)CC3)n2)c(N2CCC3(CC2)CC3)c1 [Compound 58]	0.0971	0.0904	> 10	0.119	> 10	0.0379
O=C(Nc1cn2cncc2c(N2CCC(F)(F)CC2)n1)c1ccc(NS(=O)(=O)CCO)cc1N1CC2CCC(C2)C1 [Compound 59]	0.0816	0.083	> 10	0.0491	> 10	0.0275
CS(=O)(=O)Nc1ccc(C(=O)Nc2cn3cncc3c(N3CCC(F)(F)CC3)n2)c(N2CC3CCC(C3)C2)c1 [Compound 60]	0.144	0.24	> 10	0.124	> 10	0.0632
CS(=O)(=O)Nc1ccc(C(=O)Nc2cn3cnnc3c(N3CCC(F)(F)CC3)n2)c(N2CCC3(CC2)CC3)c1 [Compound 61]	0.0596	0.0309	> 10	0.0526	> 10	0.0232
O=C(Nc1cc2cc[nH]c2c(N2CCC(F)(F)CC2)n1)c1ccc(NS(=O)(=O)CCO)cc1N1CC2CCC(C2)C1 [Compound 62]	0.0151	0.0231	> 10	0.0077	> 10	0.006
CS(=O)(=O)Nc1ccc(C(=O)Nc2cc3cc[nH]c3c(N3CCC(F)(F)CC3)n2)c(N2CC3CCC(C3)C2)c1 [Compound 63]	0.0156	0.0337	> 10	0.0103	> 10	0.0101
O=C(Nc1cn2cnnc2c(N2CCC(F)(F)CC2)n1)c1ccc(NS(=O)(=O)CCO)cc1N1CC2CCC(C2)C1 [Compound 64]	0.0552	0.0424	> 10	0.0268	> 10	0.0102
CS(=O)(=O)Nc1ccc(C(=O)Nc2cc3nn[nH]c3c(N3CCC(F)(F)CC3)n2)c(N2CC3CCC(C3)C2)c1 [Compound 66]	0.0715	0.0901	> 10	0.0345	> 10	0.0186
CS(=O)(=O)c1ccc(C(=O)Nc2cn3ccnc3c(N3CCC(F)(F)CC3)n2)c(N2CCC3(CC2)CC3)c1 [Compound 74]	0.0824	0.156	–	–	–	0.0479
